Experimental data as given in US20150362508A1, “EFFECTOR T CELL RSISTANCE” (BENAROYA RESEARCH INSTITUTE AT VIRGINIA MASON, priority 2013, published 2015).

Tested on: CD4+CD25− T cells (Teff)
Assay: CFSE-based polyclonal suppression assay (aTreg:Teff co-culture 1:4, anti-CD3/anti-CD28 beads)
Assay type: cell-based, human
Settings: for percent inhibition (Treg-mediated suppression of Teff proliferation): presence vs absence of STAT3 inhibitor, 200 ng/ml for one hour
Procedure: The level of Teff suppression was measured using an in vitro assay in which the CD4^+CD25^− T cells of patients with RRMS were co-cultured with in vitro generated Treg from healthy subjects at a Treg to Teff ratio of 1:4 in the presence of anti-CD3/anti-CD28 coated beads and where proliferation is measured using CFSE.
FIGS. 5A, 5B, and 5C relate to a gating strategy for calculation of percent inhibition in a suppression assay and a cytometric analysis of phosphorylated STAT3 and IL-6Rα surface expression. Referring to FIG. 5A, FACS analysis was performed on day 4 by gating on live cells and excluding the CFSE low population (unstained Treg) to determine the percent of the responder cells that have diluted CFSE. The percent inhibition was determined by comparing the percent of proliferating Teff cells cultured alone to the percent of proliferating Teff cells in co-culture with in vitro generated Treg at a ratio 1:4 (Treg:responder cells).
IL-6 mediated Teff resistance can be reversed through the use of a STAT3 inhibitor (Goodman, W. A., et al., J. Immunol. 186(6), 3336-3345 (2011)). […] Suppression assays were performed in the presence of the STAT3 inhibitor using the same source of control Treg for RRMS and control Teff cells. In FIG. 2D, the percent inhibition for controls (n=3) and RRMS (n=3) subjects in the presence or absence of a STAT3 inhibitor, STATTIC V, was compared using a paired Student t-test.
To determine whether IL-6R mediated signaling could alter suppression in the assay system, Teff were cultured from healthy subjects in the presence or absence of IL-6 in the in vitro co-culture system and assessed percent inhibition on day 4. […] Referring to FIG. 11, CFSE-labeled CD4^+CD25^− T cells were cultured at a ratio of 1:4 (control aTreg:control Teff) either in the absence or presence of 50 ng/ml IL-6 and activated with anti-CD3/anti-CD28 coated beads. FACS analysis was performed to determine percent inhibition on day 4 and data is represented by using a paired analysis (Correlation coefficient (r) 0.8934).
CD4^+CD25^− responder cells were isolated as described above via negative selection using Miltenyi microbeads. Allogeneic CD4^+CD25^− T cells were carboxyfluorescein succinimidyl ester (CFSE)-labelled and cultured at a ratio of 1:4 with aTregs and Dynabeads® (M-450 CD3/CD28 T, Dynal Biotech A.S.A./Life Technologies Corporation, Grand Island, N.Y.) at a ratio of 1:5 (beads:responder cells) as described previously (Schneider, A., and Buckner, J. H., Methods Mol. Biol. 707, 233-241 (2011)). […] Data was acquired using CellQuest™ Pro software (BD Bioscience) and analyzed by FlowJo (Tree Star).

Row | Molecule | percent inhibition (Treg-mediated suppression of Teff proliferation) (RRMS subjects' Teff (n=3), day 4, p<0.01, FIG. 2D) | percent inhibition (Treg-mediated suppression of Teff proliferation) (control subjects' Teff (n=3), day 4, FIG. 2D) | suppression by Treg (percent inhibition) (control aTreg:control Teff 1:4, absence vs presence of 50 ng/ml IL-6, day 4, p=0.02, FIG. 11) | proliferation of Teff (cultures with Teff alone, healthy subjects, absence vs presence of 50 ng/ml IL-6)
1 | O=[N+]([O-])c1ccc2c(c1)S(=O)(=O)C=C2 [STATTIC V] | more marked increase in suppression | enhanced suppression | – | –
2 | IL-6: recombinant human IL-6 from BD Pharmingen, pro-inflammatory cytokine | – | – | significantly decreased | unaffected
